Experimental data reported in ChEMBL document CHEMBL4339232, “Exploiting Chemical Toolboxes for the Expedited Generation of Tetracyclic Quinolines as a Novel Class of PXR Agonists” (ACS Med Chem Lett, 2019).

What was measured:
[1] = target: T1, PXR (Nuclear receptor subfamily 1 group I member 2) (Homo sapiens, UniProt O75469); test: Agonist activity at PXR (unknown origin) at 20 uM by AlphaScreen assay relative to T0901317; details: read-out: Activity
T1 sequence (O75469 whole entry): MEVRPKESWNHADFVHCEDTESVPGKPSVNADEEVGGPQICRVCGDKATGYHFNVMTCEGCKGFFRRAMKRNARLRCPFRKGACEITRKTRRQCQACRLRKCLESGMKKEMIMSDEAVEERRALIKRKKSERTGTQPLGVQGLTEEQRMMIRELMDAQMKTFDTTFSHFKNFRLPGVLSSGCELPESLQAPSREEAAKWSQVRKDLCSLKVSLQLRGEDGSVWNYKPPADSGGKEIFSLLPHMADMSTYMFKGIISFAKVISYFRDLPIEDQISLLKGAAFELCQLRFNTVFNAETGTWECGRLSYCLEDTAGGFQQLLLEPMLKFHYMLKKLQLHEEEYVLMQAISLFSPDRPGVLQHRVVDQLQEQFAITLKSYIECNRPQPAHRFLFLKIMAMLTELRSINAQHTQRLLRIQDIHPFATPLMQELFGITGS

[2] = target: T2, Nuclear receptor subfamily 1 group I member 2 (Homo sapiens, UniProt O75469); test: Agonist activity at PXR (unknown origin) by AlphaScreen assay
T2 sequence (O75469 whole entry): T1 sequence (O75469 whole entry)

[3] = target: T1, PXR (Nuclear receptor subfamily 1 group I member 2); test: Agonist activity at PXR (unknown origin) assessed as maximum receptor activation response at 20 uM by AlphaScreen assay relative to T0901317; details: read-out: Efficacy

SMILES	activity at 20 µM [1]	EC50 [2]	Emax at 20 µM [3]
CC(C)(C)OC(=O)N1CC[C@H]2[C@@H](c3ccsc3)Nc3c(ccc4c3CCCC4)[C@H]21	50 to 75%	3.2 µM	60%
CC(C)(C)OC(=O)N1CC[C@@H]2[C@H]1c1ccc3c(c1N[C@H]2c1ccsc1)CCCC3	75 to 100%	1.2 to 1.6 µM	82 to 119%
c1coc([C@H]2Nc3c(ccc4c3CCCC4)[C@@H]3OCCC[C@H]23)c1 (racemic)	< 25%		
c1cc([C@@H]2Nc3c(ccc4c3CCCC4)[C@@H]3NCC[C@H]23)cs1 (racemic)	< 25%		
CC(C)(C)OC(=O)N1CC[C@@H]2[C@H](c3ccccc3)Nc3c(ccc4c3CCCC4)[C@@H]21 (racemic)	50 to 75%		
CC(C)(C)OC(=O)N1CCC[C@@H]2[C@@H](c3ccsc3)Nc3c(ccc4c3CCCC4)[C@@H]21 (racemic)	< 25%		
c1csc([C@H]2Nc3c(ccc4c3CCCC4)[C@@H]3OCC[C@H]23)c1 (racemic)	< 25%		
CC(C)(C)OC(=O)N1CC[C@@H]2[C@H](c3ccco3)Nc3c(ccc4c3CCCC4)[C@@H]21 (racemic)	75 to 100%	1.5 µM	53%
c1cc([C@@H]2Nc3c(ccc4c3CCCC4)[C@@H]3NCCC[C@H]23)cs1 (racemic)	< 25%		
CC(C)(C)OC(=O)N1CCC[C@@H]2[C@H](c3ccsc3)Nc3c(ccc4c3CCCC4)[C@@H]21 (racemic)	50 to 75%		
c1coc([C@@H]2Nc3c(ccc4c3CCCC4)[C@@H]3OCCC[C@H]23)c1 (racemic)	50 to 75%		
CC(C)(C)OC(=O)N1CC[C@@H]2[C@@H](c3ccccc3)Nc3c(ccc4c3CCCC4)[C@@H]21 (racemic)	< 25%		
c1ccc([C@@H]2Nc3c(ccc4c3CCCC4)[C@@H]3OCCC[C@H]23)cc1 (racemic)	< 25%		
c1coc([C@@H]2Nc3c(ccc4c3CCCC4)[C@@H]3NCC[C@H]23)c1 (racemic)	< 25%		
CC(C)(C)OC(=O)N1CCC[C@@H]2[C@H](c3ccccc3)Nc3c(ccc4c3CCCC4)[C@@H]21 (racemic)	< 25%		
c1cc([C@H]2Nc3c(ccc4c3CCCC4)[C@@H]3OCC[C@H]23)cs1 (racemic)	25 to 50%		

SMILES	activity at 20 µM [1]	EC50 [2]	Emax at 20 µM [3]
c1ccc([C@@H]2Nc3c(ccc4c3CCCC4)[C@@H]3OCC[C@H]23)cc1 (racemic)	25 to 50%		
c1ccc([C@H]2Nc3c(ccc4c3CCCC4)[C@@H]3OCC[C@H]23)cc1 (racemic)	< 25%		
CC(C)(C)OC(=O)N1CC[C@@H]2[C@@H](c3ccsc3)Nc3c(ccc4c3CCCC4)[C@@H]21 (racemic)		3.7 µM	15%
c1coc([C@H]2Nc3c(ccc4c3CCCC4)[C@@H]3OCC[C@H]23)c1 (racemic)	< 25%		
c1csc([C@@H]2Nc3c(ccc4c3CCCC4)[C@@H]3OCC[C@H]23)c1 (racemic)	50 to 75%		
CC(C)(C)OC(=O)N1CC[C@@H]2[C@H](c3ccsc3)Nc3c(ccc4c3CCCC4)[C@@H]21 (racemic)		8.4 µM	28%
c1coc([C@@H]2Nc3c(ccc4c3CCCC4)[C@@H]3OCC[C@H]23)c1 (racemic)	50 to 75%		
CC(C)(C)OC(=O)N1CCC[C@@H]2[C@@H](c3ccccc3)Nc3c(ccc4c3CCCC4)[C@@H]21 (racemic)	< 25%		
CC(C)(C)OC(=O)N1CCC[C@@H]2[C@@H](c3ccco3)Nc3c(ccc4c3CCCC4)[C@@H]21 (racemic)	25 to 50%		
c1cc([C@@H]2Nc3c(ccc4c3CCCC4)[C@@H]3OCC[C@H]23)cs1 (racemic)	75 to 100%	3.5 µM	42%
c1coc([C@@H]2Nc3c(ccc4c3CCCC4)[C@@H]3NCCC[C@H]23)c1 (racemic)	< 25%		
CC(C)(C)OC(=O)N1CCC[C@@H]2[C@H](c3ccco3)Nc3c(ccc4c3CCCC4)[C@@H]21 (racemic)	25 to 50%		
CC(C)(C)OC(=O)N1CC[C@@H]2[C@@H](c3ccco3)Nc3c(ccc4c3CCCC4)[C@@H]21 (racemic)	25 to 50%		
c1ccc([C@H]2Nc3c(ccc4c3CCCC4)[C@@H]3OCCC[C@H]23)cc1 (racemic)	< 25%		
c1ccc([C@@H]2Nc3c(ccc4c3CCCC4)[C@@H]3NCC[C@H]23)cc1 (racemic)	< 25%		
